Source: the supplement of paper PMC10307832

Legend:
Assay in all cases: relative viability (nuclei count vs DMSO), 5 days (fraction); higher = more cells survive
[1] = system: 201T
Summary of the method: (§1)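 Lung cancer cell lines were seeded in 1536-well plates and dosed by pin tool the next day, with either a single drug or a fixed anchor-drug dose combined with five library-drug doses (not always all listed) spaced in √10 steps. Five days later, one step fixed the cells and stained their nuclei (final 0.05% Triton X-100, 1% formaldehyde, 1 ug/ml Hoechst), and nuclei were counted on 4× images. Relative viability is the nuclei count in treated wells divided by the count in vehicle wells, and each value is the median of duplicate plates.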

[2] = system: COR-L 105
Summary of the method: as §1

[3] = system: COR-L23
Summary of the method: as §1

[4] = system: EMC-BAC-2
Summary of the method: as §1

[5] = system: HCC-15
Summary of the method: as §1

[6] = system: HCC-366
Summary of the method: as §1

[7] = system: LC-2-ad
Summary of the method: as §1

[8] = system: NCI-H1437
Summary of the method: as §1

[9] = system: NCI-H1755
Summary of the method: as §1

[10] = system: NCI-H1792
Summary of the method: as §1

[11] = system: NCI-H1915
Summary of the method: as §1

[12] = system: NCI-H2009
Summary of the method: as §1

[13] = system: NCI-H2023
Summary of the method: as §1

[14] = system: NCI-H2347
Summary of the method: as §1

[15] = system: NCI-H23
Summary of the method: as §1

[16] = system: NCI-H650
Summary of the method: as §1

[17] = system: PC-14
Summary of the method: as §1

CCNC(=O)c1noc(-c2cc(C(C)C)c(O)cc2O)c1-c1ccc(CN2CCOCC2)cc1 [Luminespib] + CC(C)C[C@H](NC(=O)[C@H](Cc1ccccc1)NC(=O)c1cnccn1)B(O)O [Bortezomib] (partner 0.002 µM)
relative viability ([1]; first compound 0.002 µM): 1.11 | relative viability ([1]; first compound 0.006325 µM): 1.07 | relative viability ([1]; first compound 0.02 µM): 0.937 | relative viability ([1]; first compound 0.06325 µM): 1.09 | relative viability ([1]; first compound 0.2 µM): 1.09 | relative viability ([2]; first compound 0.002 µM): 0.992 | relative viability ([2]; first compound 0.006325 µM): 0.75 | relative viability ([2]; first compound 0.02 µM): 0.342 | relative viability ([2]; first compound 0.06325 µM): 0.176 | relative viability ([2]; first compound 0.2 µM): 0.206 | relative viability ([3]; first compound 0.002 µM): 1.02 | relative viability ([3]; first compound 0.006325 µM): 0.85 | relative viability ([3]; first compound 0.02 µM): 0.718 | relative viability ([3]; first compound 0.06325 µM): 0.079 | relative viability ([3]; first compound 0.2 µM): 0.079 | relative viability ([4]; first compound 0.002 µM): 1.1 | relative viability ([4]; first compound 0.006325 µM): 1.02 | relative viability ([4]; first compound 0.02 µM): 0.844 | relative viability ([4]; first compound 0.06325 µM): 1.1 | relative viability ([4]; first compound 0.2 µM): 0.913 | relative viability ([5]; first compound 0.002 µM): 1.03 | relative viability ([5]; first compound 0.006325 µM): 0.906 | relative viability ([5]; first compound 0.02 µM): 1.11 | relative viability ([5]; first compound 0.06325 µM): 0.517 | relative viability ([5]; first compound 0.2 µM): 0.152 | relative viability ([6]; first compound 0.002 µM): 1.01 | relative viability ([6]; first compound 0.006325 µM): 1.01 | relative viability ([6]; first compound 0.02 µM): 0.474 | relative viability ([6]; first compound 0.06325 µM): 0.025 | relative viability ([6]; first compound 0.2 µM): 0.0174 | relative viability ([7]; first compound 0.002 µM): 0.733 | relative viability ([7]; first compound 0.006325 µM): 1.02 | relative viability ([7]; first compound 0.02 µM): 1.1 | relative viability ([7]; first compound 0.06325 µM): 0.133 | relative viability ([7]; first compound 0.2 µM): 0.0947 | relative viability ([8]; first compound 0.002 µM): 0.511 | relative viability ([8]; first compound 0.006325 µM): 0.38 | relative viability ([8]; first compound 0.02 µM): 0.431 | relative viability ([8]; first compound 0.06325 µM): 0.247 | relative viability ([8]; first compound 0.2 µM): 0.0895 | relative viability ([9]; first compound 0.002 µM): 0.992 | relative viability ([9]; first compound 0.006325 µM): 0.909 | relative viability ([9]; first compound 0.02 µM): 0.954 | relative viability ([9]; first compound 0.06325 µM): 0.528 | relative viability ([9]; first compound 0.2 µM): 0.169 | relative viability ([10]; first compound 0.002 µM): 0.93 | relative viability ([10]; first compound 0.006325 µM): 0.888 | relative viability ([10]; first compound 0.02 µM): 0.633 | relative viability ([10]; first compound 0.06325 µM): 0.478 | relative viability ([10]; first compound 0.2 µM): 0.36 | relative viability ([11]; first compound 0.002 µM): 0.976 | relative viability ([11]; first compound 0.006325 µM): 0.995 | relative viability ([11]; first compound 0.02 µM): 1.02 | relative viability ([11]; first compound 0.06325 µM): 0.942 | relative viability ([11]; first compound 0.2 µM): 0.442 | relative viability ([12]; first compound 0.002 µM): 1.16 | relative viability ([12]; first compound 0.006325 µM): 0.841 | relative viability ([12]; first compound 0.02 µM): 0.956 | relative viability ([12]; first compound 0.06325 µM): 0.0583 | relative viability ([12]; first compound 0.2 µM): 0.0609 | relative viability ([13]; first compound 0.002 µM): 1.04 | relative viability ([13]; first compound 0.006325 µM): 0.958 | relative viability ([13]; first compound 0.02 µM): 0.29 | relative viability ([13]; first compound 0.06325 µM): 0.069 | relative viability ([13]; first compound 0.2 µM): 0.0759 | relative viability ([14]; first compound 0.002 µM): 0.947 | relative viability ([14]; first compound 0.006325 µM): 0.601 | relative viability ([14]; first compound 0.02 µM): 0.737 | relative viability ([14]; first compound 0.06325 µM): 0.587 | relative viability ([14]; first compound 0.2 µM): 0.36 | relative viability ([15]; first compound 0.002 µM): 1.23 | relative viability ([15]; first compound 0.006325 µM): 1.05 | relative viability ([15]; first compound 0.02 µM): 0.733 | relative viability ([15]; first compound 0.06325 µM): 0.119 | relative viability ([15]; first compound 0.2 µM): 0.117 | relative viability ([16]; first compound 0.002 µM): 0.737 | relative viability ([16]; first compound 0.006325 µM): 0.716 | relative viability ([16]; first compound 0.02 µM): 0.651 | relative viability ([16]; first compound 0.06325 µM): 0.124 | relative viability ([16]; first compound 0.2 µM): 0.103 | relative viability ([17]; first compound 0.002 µM): 0.956 | relative viability ([17]; first compound 0.006325 µM): 0.788 | relative viability ([17]; first compound 0.02 µM): 0.988 | relative viability ([17]; first compound 0.06325 µM): 0.314 | relative viability ([17]; first compound 0.2 µM): 0.0725
